Laboratory results taken from patent US20050054103A1, “Expansion of renewable stem cell populations using modulators of PI 3-kinase” (priority 2003, published 2005).

Key:
[1] = system: primary hepatocytes; experiment: Primary hepatocyte cultures with RAR antagonist (AFP/albumin immunostaining, Giemsa); assay type: cell-based, mice; conditions: for α-fetoprotein (AFP) expression vs control: three week old primary cultures, no cytokines
Protocol: Three intact livers were harvested from 3 week old VLVC female mice (Harlan Laboratories, Jerusalem, Israel), dissected and washed twice with DMEM (Beit Haemek, Israel), incubated with DMEM in the presence 0.05% collagenase for 30 minutes at 37° C., ground and passed through a 200 μm mesh sieve, yielding individual hepatocytes. Cells were washed twice and viability was ascertained with trypan blue. Cells were plated in collagen-coated, 35 mm tissue culture plates at a density of 4-×10^4 live cells/ml in F12 media (containing 15 mM Hepes, 0.1% glucose, 10 mM sodium bicarbonate, 100 units/ml penicillin-streptomycin, glutamine, 0.5 units/ml insulin, 7.5 m cg/ml hydrocortisone, and 10% fetal bovine serum). Medium was changed after 12 hours, the cells were washed twice with phosphate buffered saline (PBS) and new medium was added. Medium was changed twice a week.
Hepatocytes were also grown in the presence of Epidermal Growth Factor (EGF), Platelet-Derived Growth Factor β chain (PDGF-BB), Fibroblast growth Factors (FGF-4) and Hepatocyte Growth Factor (HGF), at 20-50 ng/ml each, for the entire culturing period according to the method of Schwartz et al. (Schwartz R E, Reyes M, Koodie L, Jiang Y, Blackstad M, Lund T, Lenvik T, Johnson S, Hu W S, Verfaillie C M. Multipotent adult progenitor cells from bone marrow differentiate into functional hepatocyte-like cells. J Clin Invest. 2002; 109 (10): 1291-302). Hepatocytes were also grown in serum free medium according to the method of Runge et al. (Runge D, Runge D M, Jager D, Lubecki K A, Beer Stolz D, Karathanasis S, Kietzmann T, Strom S C, Jungermann K, Fleig W E, Michalopoulos G K. Serum-free, long-term cultures of human hepatocytes: maintenance of cell morphology, transcription factors, and liver-specific functions. Biochem Biophys Res Commun. 2000; 269(1): 46-53).
In all of the above-mentioned hepatocytes culture conditions, cells are grown in the presence or absence of the retinoic acid antagonist AGN 194310 at concentrations ranging from 10^−5 M to 10^−9 M.
After a period of 3 weeks, cultures treated with 10^−5 M antagonist were detached with 0.25% trypsin, split and replated at a 1:2 ratio. The cells were either immunostained as described below, or visualized with Giemsa staining.
Murine hepatocyte cultures supplemented with EGF and HGF were evaluated as primary cultures, or following first and second passages. First passage cultures were grown for 2 weeks, split 1:2 and immunostained 8 days later for the presence of albumin, as described below. Second passage cultures were similarly grown for 2 weeks, split 1:2, and grown for an additional week, then split 1:4 and similarly immunostained 4 days later. […]

[2] = system: Normal human erythroid cells; experiment: Human erythroid two-phase liquid culture; assay type: cell-based; conditions: TEPA 10 μM in second phase, after 14 days
Protocol: Peripheral blood mononuclear cells, obtained from an adult normal donor, were cultured in the erythroid two-phase liquid culture system (23-25). The second phase of the culture was supplemented either without or with 10 μM of TEPA. Cultures were analyze for total cells and hemoglobin-containing [benzidine positive (B^+)] cells after 14 days.
Human erythroid cell cultures: Normal human erythroid cells were grown according to the two-phase liquid culture procedure, essentially as described in references 67-70. In the first phase, peripheral blood mononuclear cells were incubated in the presence of early growth factors for 5-7 days. In the second phase, these factors were replaced by the erythroid specific proliferation/differentiation factor, erythropoietin.
The cultures were supplemented with TEPA at the initiation of the second phase. The total cell number and the percentage of hemoglobin-containing cells were determined after 14 days.

SMILES	oval cell population (giemsa) ([1]; 10^−5 M, primary cultures)	α-fetoprotein (AFP) expression vs control ([1]; 10^−5 M)	α-fetoprotein (AFP) expression vs control ([1]; 10^−5 M, listed as retinoic acid antagonist)	numbers of hepatocytes vs controls ([1]; second passage, EGF + HGF, 10^−5 M to 10^−7 M)	hemoglobin-containing cells [2]	total number of cells [2]
CCc1ccc(C2=CC(C)(C)Sc3ccc(C#Cc4ccc(C(=O)O)cc4)cc32)cc1 [AGN 194310]	marked increase in oval cell population	marked increase in AFP expression	increase in the fraction of cells that stained positively for α-fetoprotein	Significantly greater numbers of hepatocytes	–	–
NCCNCCNCCNCCN [TEPA, tetraethylenepentamine]	–	–	–	–	sharp decrease	decreased only slightly
